{"source": "patent US20230002372A1", "about": "“AZAINDOLE CARBOXAMIDE COMPOUNDS FOR THE TREATMENT OF MYCOBACTERIAL INFECTIONS” (THE GLOBAL ALLIANCE FOR TB DRUG DEVELOPMENT, INC., priority 2019, published 2023)", "data": [{"tested_on": "Mycobacterium abscessus", "assay": "MIC against Mycobacterium abscessus (Mab_ATCC, MHII broth)", "format": "cell-based", "details": "Mycobacteroides abscessus; Mycobacterium abscessus ATCC strain; Mueller-Hinton broth (MHII)", "source_text": "Key for Tables: MIC: Minimum Inhibitory Concentration; MABA: microplate-based Alamar Blue assay; Mab: Mycobacterium abscessus; ATCC: American Type Culture Collection; and MHII: Mueller-Hinton broth.", "units": {"MIC": "µg/mL"}, "values": [{"compound": "Cc1nc(F)cc2cc(C(=O)NC3CCC(C)(C)CC3)[nH]c12", "note": "[MPL-135, N-(4,4-dimethylcyclohexyl)-5-fluoro-7-methyl-1H-pyrrolo[2,3-c]pyridine-2-carboxamide]", "MIC": 8}, {"compound": "Cc1cc(F)c2c(C)c(C(=O)NC3CC[Si](C)(C)CC3)[nH]c2n1", "note": "[MPL-209, N-(1,1-dimethylsilinan-4-yl)-4-fluoro-3,6-dimethyl-1H-pyrrolo[2,3-b]pyridine-2-carboxamide]", "MIC": 1}, {"compound": "CC1(C)C2CCC1(C)C(NC(=O)c1cc3c(F)cncc3[nH]1)C2", "note": "(stereo not shown) [MPL-188, 4-fluoro-N-(1,7,7-trimethylnorbornan-2-yl)-1H-pyrrolo[2,3-c]pyridine-2-carboxamide]", "MIC": 8}]}, {"tested_on": "M tb H37Rv", "assay": "MIC determination against M tb H37Rv (green fluorescent protein reporter assay; MIC-MABA)", "format": "cell-based, Mycobacterium tuberculosis", "details": "Mycobacterium tuberculosis, H37RV, 240 h, read-out: M. TB H37Rv: MIC-MABA: MIC, M. tb H37Rv; 7H9 broth; 10 days exposure; MIC = lowest concentration inhibiting fluorescence by 90%", "units": {"MIC": "µg/mL"}, "values": [{"compound": "Cc1nc(F)cc2cc(C(=O)NC3CCC(C)(C)CC3)[nH]c12", "note": "[MPL-135, N-(4,4-dimethylcyclohexyl)-5-fluoro-7-methyl-1H-pyrrolo[2,3-c]pyridine-2-carboxamide]", "MIC": 1.5}, {"compound": "Cc1cc(F)c2c(C)c(C(=O)NC3CC[Si](C)(C)CC3)[nH]c2n1", "note": "[MPL-209, N-(1,1-dimethylsilinan-4-yl)-4-fluoro-3,6-dimethyl-1H-pyrrolo[2,3-b]pyridine-2-carboxamide]", "MIC": 0.03}, {"compound": "O=C(NC1CCCCCCC1)c1cc2c(Br)ccnc2[nH]1", "note": "[MPL-035, 4-bromo-N-cyclooctyl-1H-pyrrolo[2,3-b]pyridine-2-carboxamide]", "MIC": 0.14}, {"compound": "Cc1cc2cc(C(=O)NC3CCCCCCC3)[nH]c2nc1C", "note": "[MPL-071, N-cyclooctyl-5,6-dimethyl-1H-pyrrolo[2,3-b]pyridine-2-carboxamide]", "MIC": 0.049}, {"compound": "C[C@@H]1[C@@H](NC(=O)c2cc3cc(Cl)c(F)nc3[nH]2)C[C@H]2C[C@@H]1C2(C)C", "note": "[MPL-064, 5-chloro-6-fluoro-N-[(1S,2S,3S,5R)-2,6,6-trimethylnorpinan-3-yl]-1H-pyrrolo[2,3-b]pyridine-2-carboxamide]", "MIC": 0.16}, {"compound": "COc1cc(F)cc2[nH]c(C(=O)NC3CC[Si](C)(C)CC3)cc12", "note": "[MPL-196, N-(1,1-dimethylsilinan-4-yl)-6-fluoro-4-methoxy-1H-indole-2-carboxamide]", "MIC": 0.0048}, {"compound": "Cc1cc2cc(C(=O)N[C@H]3C[C@H]4C[C@@H]([C@@H]3C)C4(C)C)[nH]c2c(F)n1", "note": "[MPL-122, 7-fluoro-5-methyl-N-[(1S,2S,3S,5R)-2,6,6-trimethylnorpinan-3-yl]-1H-pyrrolo[2,3-c]pyridine-2-carboxamide]", "MIC": 3.1}, {"compound": "C[Si]1(C)CCC(NC(=O)c2cc3c(C#N)ccnc3[nH]2)CC1", "note": "[MPL-110, 4-cyano-N-(1,1-dimethylsilinan-4-yl)-1H-pyrrolo[2,3-b]pyridine-2-carboxamide]", "MIC": 0.022}, {"compound": "C[Si]1(C)CCC(NC(=O)c2cc3c(F)c(C(F)(F)F)ncc3[nH]2)CC1", "note": "[MPL-322, N-(1,1-dimethylsilinan-4-yl)-4-fluoro-5-(trifluoromethyl)-1H-pyrrolo[2,3-c]pyridine-2-carboxamide]", "MIC": 0.484}, {"compound": "Cc1nc2[nH]c(C(=O)N[C@H]3C[C@H]4C[C@@H]([C@@H]3C)C4(C)C)cc2c(F)c1Cl", "note": "[MPL-068, 5-chloro-4-fluoro-6-methyl-N-[(1S,2S,3S,5R)-2,6,6-trimethylnorpinan-3-yl]-1H-pyrrolo[2,3-b]pyridine-2-carboxamide]", "MIC": 0.046}, {"compound": "CC1(C)[C@H]2C[C@H](NC(=O)c3cc4c(F)c(F)cnc4[nH]3)[C@](C)(O)[C@@H]1C2", "note": "[MPL-219, 4,5-difluoro-N-[(1R,2R,3S,5R)-2-hydroxy-2,6,6-trimethyl-norpinan-3-yl]-1H-pyrrolo[2,3-b]pyridine-2-carboxamide]", "MIC": 0.9}, {"compound": "Cc1nc2[nH]c(C(=O)N[C@@H]3CC[Si](C)(C)C3)cc2c(F)c1F", "note": "(single isomer, unassigned) [MPL-295A]", "MIC": 0.22}, {"compound": "CNc1ccnc2[nH]c(C(=O)N[C@H]3C[C@H]4C[C@@H]([C@@H]3C)C4(C)C)cc12", "note": "[MPL-023, 4-(methylamino)-N-[(1S,2S,3S,5R)-2,6,6-trimethylnorpinan-3-yl]-1H-pyrrolo[2,3-b]pyridine-2-carboxamide]", "MIC": 11}, {"compound": "C[Si]1(C)CCC(NC(=O)c2cc3cc(-c4ccccc4)ncc3[nH]2)CC1", "note": "[MPL-445]", "MIC": 0.119}, {"compound": "Cc1ncc2[nH]c(C(=O)NC3CC[Si]4(CCCCC4)CC3)cc2c1F", "note": "[MPL-320, 4-fluoro-5-methyl-N-(6-silaspiro[5.5]undecan-3-yl)-1H-pyrrolo[2,3-c]pyridine-2-carboxamide]", "MIC": 0.25}, {"compound": "C[Si]1(C)CCC(NC(=O)c2cc3cc(C(F)(F)F)ncc3[nH]2)C1", "note": "(stereo not shown) [MPL-402, N-(1,1-dimethylsilolan-3-yl)-5-(trifluoromethyl)-1H-pyrrolo[2,3-c]pyridine-2-carboxamide]", "MIC": 0.962}]}]}
